# Assay results reported in US10988477B2 (Merck Patent GmbH, priority 2018, dated 2021).
# Tests used:
# GCN2 kinase = GCN2 kinase (Homo sapiens, UniProt Q9P2K8); assay: GCN2 enzyme inhibition assay (Transcreener ADP2 fluorescence polarization); type: biochemical; details: Enzyme activity for compounds of Formula IV; Ki(app), 280 μM ATP, 25° C.
# How it was run: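 Human GCN2 (4 nM) preincubated 10 min with compound (0–8 μM) and 200 μM (RS)7 peptide in Tris-HCl pH 7.5, NaCl, MgCl2, DTT. Reaction started with 280 μM ATP, run 1 h at 25 °C. ADP detected by Transcreener fluorescence polarization. IC50 and Ki(app) fitted by tight-binding algorithm.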
# [1] = molecular target: intracellular GCN2 (phosphorylation of the GCN2 substrate eIF2α) (Homo sapiens, UniProt Q9P2K8); assay: GCN2 cellular inhibition assay (AlphaScreen SureFire P-eIF2α Ser51, borrelidin-treated U2OS cells); type: cell-based; details: compounds of Formula IV; biomarker assay, phosphorylated eIF2α Ser51 in borrelidin-treated U2OS cells
# How it was run: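 Borrelidin at 10 μM is added to U2OS cells immediately after compound (4-fold dilution series, 40 μM top final) for 1 h at 37 °C. Phosphorylated eIF2α Ser51 in lysates is quantified by AlphaScreen and expressed as percent inhibition against borrelidin-stimulated controls.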
# intracellular GCN2 (phosphorylation of the GCN2 substrate eIF2α), sequence (Q9P2K8 whole entry): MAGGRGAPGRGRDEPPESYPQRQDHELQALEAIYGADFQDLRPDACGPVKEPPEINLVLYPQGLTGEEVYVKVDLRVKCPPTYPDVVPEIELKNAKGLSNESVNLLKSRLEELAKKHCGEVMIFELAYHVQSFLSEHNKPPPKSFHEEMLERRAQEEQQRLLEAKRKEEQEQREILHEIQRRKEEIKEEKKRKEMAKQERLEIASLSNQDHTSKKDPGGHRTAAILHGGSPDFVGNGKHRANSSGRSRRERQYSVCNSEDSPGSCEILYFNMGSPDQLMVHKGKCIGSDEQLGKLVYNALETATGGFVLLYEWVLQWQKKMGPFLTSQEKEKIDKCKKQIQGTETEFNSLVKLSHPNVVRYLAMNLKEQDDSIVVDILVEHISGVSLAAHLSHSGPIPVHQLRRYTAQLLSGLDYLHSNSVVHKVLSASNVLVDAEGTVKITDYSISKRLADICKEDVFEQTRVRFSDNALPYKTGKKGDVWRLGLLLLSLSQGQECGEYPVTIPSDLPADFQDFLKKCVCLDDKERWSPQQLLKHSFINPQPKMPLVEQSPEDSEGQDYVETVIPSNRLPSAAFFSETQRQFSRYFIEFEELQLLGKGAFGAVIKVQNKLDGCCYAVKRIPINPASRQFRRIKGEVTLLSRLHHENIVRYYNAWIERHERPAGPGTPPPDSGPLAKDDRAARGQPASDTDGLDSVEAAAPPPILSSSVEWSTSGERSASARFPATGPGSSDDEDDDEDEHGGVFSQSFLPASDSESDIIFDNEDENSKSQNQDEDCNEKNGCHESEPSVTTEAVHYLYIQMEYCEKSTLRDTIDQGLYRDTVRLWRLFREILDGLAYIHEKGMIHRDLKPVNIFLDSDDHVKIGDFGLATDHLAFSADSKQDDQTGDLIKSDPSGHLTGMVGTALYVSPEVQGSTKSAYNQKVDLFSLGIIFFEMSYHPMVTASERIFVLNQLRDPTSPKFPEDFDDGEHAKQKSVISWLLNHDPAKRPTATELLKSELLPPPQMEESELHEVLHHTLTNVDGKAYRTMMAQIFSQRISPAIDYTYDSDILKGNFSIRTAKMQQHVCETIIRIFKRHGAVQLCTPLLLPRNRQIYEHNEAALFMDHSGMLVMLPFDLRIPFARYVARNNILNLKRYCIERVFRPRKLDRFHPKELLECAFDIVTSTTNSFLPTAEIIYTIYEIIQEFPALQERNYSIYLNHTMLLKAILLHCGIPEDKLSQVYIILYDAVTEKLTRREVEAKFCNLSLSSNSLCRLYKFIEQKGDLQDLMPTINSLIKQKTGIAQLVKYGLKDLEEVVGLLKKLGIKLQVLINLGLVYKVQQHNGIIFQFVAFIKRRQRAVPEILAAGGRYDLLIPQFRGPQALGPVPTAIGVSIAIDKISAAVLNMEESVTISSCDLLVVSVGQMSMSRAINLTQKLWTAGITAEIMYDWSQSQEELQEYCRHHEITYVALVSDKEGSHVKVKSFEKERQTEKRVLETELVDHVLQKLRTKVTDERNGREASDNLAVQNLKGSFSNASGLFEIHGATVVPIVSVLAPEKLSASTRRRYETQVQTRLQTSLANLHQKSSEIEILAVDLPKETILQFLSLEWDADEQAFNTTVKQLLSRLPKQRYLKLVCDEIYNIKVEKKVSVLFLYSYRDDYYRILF
# GCN2 kinase, sequence (Q9P2K8 whole entry): as above
Ki (GCN2 kinase),IC50 [1],SMILES
100 to 1000 nM,> 5 µM,"OCc1cc(C2CCCN(c3ccnc(-c4cnc5cnc(C(F)F)cn45)n3)C2)n[nH]1 (centres unmarked) [IV-93, (3-(1-(2-(6-(Difluoromethyl)imidazo[1,2-a]pyrazin-3-yl)pyrimidin-4-yl)piperidin-3-yl)-1H-pyrazol-5-yl)methanol]"
100 to 1000 nM,> 5 µM,"NC(=O)c1cc(C2CCCN(c3ccnc(-c4cnc5cnc(C(F)F)cn45)n3)C2)n[nH]1 (centres unmarked) [IV-94, 3-(1-(2-(6-(Difluoromethyl)imidazo[1,2-a]pyrazin-3-yl)pyrimidin-4-yl)piperidin-3-yl)-1H-pyrazole-5-carboxamide]"
100 to 1000 nM,> 5 µM,"CNC(=O)c1cc(C2CCCN(c3ccnc(-c4cnc5cnc(C(F)F)cn45)n3)C2)n[nH]1 (centres unmarked) [IV-95, 3-(1-(2-(6-(Difluoromethyl)imidazo[1,2-a]pyrazin-3-yl)pyrimidin-4-yl)piperidin-3-yl)-N-methyl-1H-pyrazole-5-carboxamide]"
10 to 100 nM,0.5 to 5 µM,"Cc1n[nH]cc1C1=CCCN(c2ccnc(-c3cnc4cnc(C(F)F)cn34)n2)C1 [IV-96, 6-(Difluoromethyl)-3-(4-(5-(3-methyl-1H-pyrazol-4-yl)-3,6-dihydropyridin-1 (2H)-yl)pyrimidin-2-yl)imidazo[1,2-a]pyrazine]"
10 to 100 nM,> 5 µM,"Cc1n[nH]cc1C1CCCN(c2ccnc(-c3cnc4cnc(C(F)F)cn34)n2)C1 (centres unmarked) [IV-97, 6-(Difluoromethyl)-3-(4-(3-(3-methyl-1H-pyrazol-4-yl)piperidin-1-yl)pyrimidin-2-yl)imidazo[1,2-a]pyrazine]"
100 to 1000 nM,> 5 µM,"O=C1CCC2CN(c3ccnc(-c4cnc5cnc(C(F)F)cn45)n3)CCN12 (centres unmarked) [IV-98, 2-(2-(6-(Difluoromethyl)imidazo[1,2-a]pyrazin-3-yl)pyrimidin-4-yl)hexahydropyrrolo[1,2-a]pyrazin-6(2H)-one]"
100 to 1000 nM,> 5 µM,"O=C1CCCC2CN(c3ccnc(-c4cnc5cnc(C(F)F)cn45)n3)CCN12 (centres unmarked) [IV-99, 2-(2-(6-(Difluoromethyl)imidazo[1,2-a]pyrazin-3-yl)pyrimidin-4-yl)octahydro-6H-pyrido[1,2-a]pyrazin-6-one]"
100 to 1000 nM,> 5 µM,"O=C1OCC2CN(c3ccnc(-c4cnc5cnc(C(F)F)cn45)n3)CCN12 (centres unmarked) [IV-100, 7-(2-(6-(Difluoromethyl)imidazo[1,2-a]pyrazin-3-yl)pyrimidin-4-yl)hexahydro-3H-oxazolo[3,4-a]pyrazin-3-one]"
100 to 1000 nM,> 5 µM,"NS(=O)(=O)N1CCCN(c2ccnc(-c3cnc4cnc(C(F)F)cn34)n2)CC1 [IV-101, 4-(2-(6-(Difluoromethyl)imidazo[1,2-a]pyrazin-3-yl)pyrimidin-4-yl)-1,4-diazepane-1-sulfonamide]"
100 to 1000 nM,> 5 µM,"FC(F)c1cn2c(-c3nccc(N4CCC(C5CCOCC5)C4)n3)cnc2cn1 (centres unmarked) [IV-102, 6-(Difluoromethyl)-3-(4-(3-(tetrahydro-2H-pyran-4-yl)pyrrolidin-1-yl)pyrimidin-2-yl)imidazo[1,2-a]pyrazine]"
100 to 1000 nM,> 5 µM,"FC(F)c1cn2c(-c3nccc(N4CCCCC4)n3)cnc2cn1 [IV-103, 6-(Difluoromethyl)-3-(4-(piperidin-1-yl)pyrimidin-2-yl)imidazo[1,2-a]pyrazine]"
100 to 1000 nM,> 5 µM,"FC(F)c1cn2c(-c3nccc(N4CCOCC4)n3)cnc2cn1 [IV-104, 4-(2-(6-(Difluoromethyl)imidazo[1,2-a]pyrazin-3-yl)pyrimidin-4-yl)morpholine]"
100 to 1000 nM,> 5 µM,"FC(F)c1cn2c(-c3nccc(N4CCCCCC4)n3)cnc2cn1 [IV-105, 3-(4-(Azepan-1-yl)pyrimidin-2-yl)-6-(difluoromethyl)imidazo[1,2-a]pyrazine]"
10 to 100 nM,0.5 to 5 µM,"CC1CCN(c2ccnc(-c3cnc4cnc(C(F)F)cn34)n2)CC1C(N)=O (centres unmarked) [IV-108, 1-(2-(6-(Difluoromethyl)imidazo[1,2-a]pyrazin-3-yl)pyrimidin-4-yl)-4-methylpiperidine-3-carboxamide]"
10 to 100 nM,0.5 to 5 µM,"CC1C(C(N)=O)CCCN1c1ccnc(-c2cnc3cnc(C(F)F)cn23)n1 (centres unmarked) [IV-109, 1-(2-(6-(Difluoromethyl)imidazo[1,2-a]pyrazin-3-yl)pyrimidin-4-yl)-2-methylpiperidine-3-carboxamide]"
100 to 1000 nM,> 5 µM,"OCC12CC1CN(c1ccnc(-c3cnc4cnc(C(F)F)cn34)n1)C2 (centres unmarked) [IV-111, (3-(2-(6-(Difluoromethyl)imidazo[1,2-a]pyrazin-3-yl)pyrimidin-4-yl)-3-azabicyclo[3.1.0]hexan-1-yl)methanol]"
100 to 1000 nM,> 5 µM,"Cc1cc(C2CCCN(c3ccnc(-c4cnc5cnc(C(F)F)cn45)n3)C2)n[nH]1 (centres unmarked) [IV-112, 6-(Difluoromethyl)-3-(4-(3-(5-methyl-1H-pyrazol-3-yl)piperidin-1-yl)pyrimidin-2-yl)imidazo[1,2-a]pyrazine]"

Ki (GCN2 kinase),IC50 [1],SMILES
100 to 1000 nM,> 5 µM,"Cn1nc(C2CCCN(c3ccnc(-c4cnc5cnc(C(F)F)cn45)n3)C2)cc1O (centres unmarked) [IV-113, 3-(1-(2-(6-(Difluoromethyl)imidazo[1,2-a]pyrazin-3-yl)pyrimidin-4-yl)piperidin-3-yl)-1-methyl-1H-pyrazol-5-ol]"
100 to 1000 nM,> 5 µM,"NS(=O)(=O)CC1CCCN(c2ccnc(-c3cnc4cnc(C(F)F)cn34)n2)C1 (centres unmarked) [IV-114, (1-(2-(6-(Difluoromethyl)imidazo[1,2-a]pyrazin-3-yl)pyrimidin-4-yl)piperidin-3-yl)methanesulfonamide]"
100 to 1000 nM,> 5 µM,"FC(F)c1cn2c(-c3nccc(N4CCc5ccccc5C4)n3)cnc2cn1 [IV-115, 2-(2-(6-(Difluoromethyl)imidazo[1,2-a]pyrazin-3-yl)pyrimidin-4-yl)-1,2,3,4-tetrahydroisoquinoline]"
100 to 1000 nM,> 5 µM,"OC1CCC2CN(c3ccnc(-c4cnc5cnc(C(F)F)cn45)n3)CC2C1 (centres unmarked) [IV-116, 2-(2-(6-(Difluoromethyl)imidazo[1,2-a]pyrazin-3-yl)pyrimidin-4-yl)octahydro-1H-isoindol-5-ol]"
100 to 1000 nM,> 5 µM,"NC(=O)C1COCCN(c2ccnc(-c3cnc4cnc(C(F)F)cn34)n2)C1 (centres unmarked) [IV-117, 4-(2-(6-(Difluoromethyl)imidazo[1,2-a]pyrazin-3-yl)pyrimidin-4-yl)-1,4-oxazepane-6-carboxamide]"
100 to 1000 nM,> 5 µM,"NC1CCCN(c2ccnc(-c3cnc4cnc(C(F)F)cn34)n2)CC1 (centres unmarked) [IV-118, 1-(2-(6-(Difluoromethyl)imidazo[1,2-a]pyrazin-3-yl)pyrimidin-4-yl)azepan-4-amine]"
100 to 1000 nM,> 5 µM,"CC1CN(c2ccnc(-c3cnc4cnc(C(F)F)cn34)n2)CC(C)O1 (centres unmarked) [IV-119, 4-(2-(6-(Difluoromethyl)imidazo[1,2-a]pyrazin-3-yl)pyrimidin-4-yl)-2,6-dimethylmorpholine]"
100 to 1000 nM,> 5 µM,"OC1CCCN(c2ccnc(-c3cnc4cnc(C(F)F)cn34)n2)C1 (centres unmarked) [IV-120, 1-(2-(6-(Difluoromethyl)imidazo[1,2-a]pyrazin-3-yl)pyrimidin-4-yl)piperidin-3-ol]"
100 to 1000 nM,> 5 µM,"OCC1CCCN(c2ccnc(-c3cnc4cnc(C(F)F)cn34)n2)C1 (centres unmarked) [IV-121, (1-(2-(6-(Difluoromethyl)imidazo[1,2-a]pyrazin-3-yl)pyrimidin-4-yl)piperidin-3-yl)methanol]"
100 to 1000 nM,> 5 µM,"C[C@@H]1CCC[C@H](C)N1c1ccnc(-c2cnc3cnc(C(F)F)cn23)n1 [IV-122, 6-(Difluoromethyl)-3-(4-((2S,6R)-2,6-dimethylpiperidin-1-yl)pyrimidin-2-yl)imidazo[1,2-a]pyrazine]"
100 to 1000 nM,> 5 µM,"CN1CCN(c2ccnc(-c3cnc4cnc(C(F)F)cn34)n2)CC12CCNCC2 [IV-123, 4-(2-(6-(Difluoromethyl)imidazo[1,2-a]pyrazin-3-yl)pyrimidin-4-yl)-1-methyl-1,4,9-triazaspiro[5.5]undecane]"
100 to 1000 nM,> 5 µM,CS(=O)(=O)NC1CCCN(c2ccnc(-c3cnc4cnc(C(F)F)cn34)n2)CC1 (centres unmarked) [IV-124]
100 to 1000 nM,> 5 µM,"CN([C@H]1CCN(c2ccnc(-c3cnc4cnc(C(F)F)cn34)n2)C1)S(C)(=O)=O [IV-125, (S)—N-(1-(2-(6-(Difluoromethyl)imidazo[1,2-a]pyrazin-3-yl)pyrimidin-4-yl)pyrrolidin-3-yl)-N-methylmethanesulfonamide]"
100 to 1000 nM,> 5 µM,"CS(=O)(=O)N1C2CCC1CN(c1ccnc(-c3cnc4cnc(C(F)F)cn34)n1)C2 [IV-126, 6-(Difluoromethyl)-3-(4-(8-(methylsulfonyl)-3,8-diazabicyclo[3.2.1]octan-3-yl)pyrimidin-2-yl)imidazo[1,2-a]pyrazine]"
100 to 1000 nM,> 5 µM,"NC(=O)C1COCCN(c2ccnc(-c3cnc4cnc(C(F)F)cn34)n2)C1 (centres unmarked) [IV-128, 4-(2-(6-(Difluoromethyl)imidazo[1,2-a]pyrazin-3-yl)pyrimidin-4-yl)-1,4-oxazepane-6-carboxamide]"
100 to 1000 nM,> 5 µM,"C[C@@H]1CCCN(c2ccnc(-c3cnc4cnc(C(F)F)cn34)n2)C1 [IV-129, (R)-6-(Difluoromethyl)-3-(4-(3-methylpiperidin-1-yl)pyrimidin-2-yl)imidazo[1,2-a]pyrazine]"
100 to 1000 nM,> 5 µM,"FC(F)c1cn2c(-c3nccc(N4CCCC5CCCC54)n3)cnc2cn1 (centres unmarked) [IV-130, 6-(Difluoromethyl)-3-(4-(octahydro-1H-cyclopenta[b]pyridin-1-yl)pyrimidin-2-yl)imidazo[1,2-a]pyrazine]"
